Results taken from US9340577B2, “HLA binding motifs and peptides and their uses” (priority 1992, dated 2016).
No end group written: not given here.

How the values were obtained:
Test in all cases: biochemical
[1] = target: DRB1*1101 (Homo sapiens, UniProt P01903+P01911, A100R/A169T/A87E/I96F/K41T/L162R/M171V/P40S/Q125H/Q178H/Q39Y/Q99D/R42S/S66Y/T262R/V115G/W38E); settings: Binding affinity DRB1 *1101
[2] = target: DRB1*0802 (Homo sapiens, UniProt P01903+P01911, A100R/A103L/A169T/F76Y/H45Y/I96F/K41T/L162R/M171V/P40S/Q125H/Q178H/Q39Y/Q99D/R218S/R42G/S66Y/V115G/W38E); assay type: binding
[3] = target: DRB5*0101 (Homo sapiens, UniProt P01903+Q30154); settings: Binding affinity DRB5 *0101
[4] = target: DR7 (DRB1*0701) (Homo sapiens, UniProt P01903+P01911, A100R/A102G/A103Q/D57E/D86V/E43K/F76Y/K127E/L162R/M171V/P40G/Q125H/Q99D/R33Q/R42Y/R54Q/S133A/S66F/T210M/V115G/Y107V/Y59L/Y89S); assay type: binding
[5] = target: DRB1*0901 (Homo sapiens, UniProt P01903+P01911, A100R/A103E/D57H/D86V/F55Y/F60I/F76Y/I96F/K127E/L162R/M171V/P40D/Q125H/Q99R/R33Q/R42F/S133A/S66N/T210M/V115G/W38K/Y107V/Y59G/Y89S); assay type: binding
[6] = target: DR1 (DRB1*0101) (Homo sapiens, UniProt P01903+P01911, A100R/D57E/F55L/F60I/F76Y/I96L/L162R/M171V/P40L/Q125E/R42F/V115G/Y59C); assay type: binding
[7] = target: DRB1*0405 (Homo sapiens, UniProt P01903+P01911, A100R/A169T/D86S/F76Y/I96L/K127E/L162R/M171V/N62H/P40V/Q125Y/R42H/S133A/S149N/S66Y/V115G/V209L/W38E); assay type: binding
[8] = target: DR4w4 (DRB1*0401) (Homo sapiens, UniProt P01903+P01911, A100K/A169T/F76Y/I96L/K127E/L162R/M171V/N62H/P40V/Q125Y/R42H/S133A/S149N/S66Y/V115G/V209L/W38E); assay type: binding
[9] = target: DRB4*0101 (Homo sapiens, UniProt P01903+P13762, G164S); assay type: binding
[10] = target: DRB1*1501 (Homo sapiens, UniProt P01903+P01911); assay type: binding
[11] = target: DRB1*1302 (Homo sapiens, UniProt P01903+P01911, A100E/A169T/K41T/L162R/M171V/P40S/Q125H/Q178H/Q39Y/Q99D/R42S/S66N/T262R/V115G/W38E/Y61H); assay type: binding
Chain of DRB1*1302 (P01903 26-254 limits assumed, other chains not shown): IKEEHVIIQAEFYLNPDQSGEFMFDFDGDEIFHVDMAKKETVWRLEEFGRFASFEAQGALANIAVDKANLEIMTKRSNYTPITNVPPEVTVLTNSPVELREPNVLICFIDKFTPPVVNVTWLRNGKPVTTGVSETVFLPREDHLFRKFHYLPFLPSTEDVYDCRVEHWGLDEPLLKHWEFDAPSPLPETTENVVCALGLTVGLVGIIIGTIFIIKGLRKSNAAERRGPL

Chain of DRB1*1101 (P01903 26-254 limits assumed, other chains not shown): as above

Row | Compound | IC50 [1] [µM] | IC50 [2] [µM] | IC50 [3] [µM] | IC50 [4] [µM] | IC50 [5] [µM] | IC50 [6] [µM] | IC50 [7] [µM] | IC50 [8] [µM] | IC50 [9] [µM] | IC50 [10] [µM] | IC50 [11] [µM]
1 | LLQLKCPPILLTSNI [Peptide 89.0091] | > 20 | 7.29 | > 20 | 0.613 | > 20 | 0.037 | > 20 | 1.44 | 0.122 |  | 
2 | HQVVPALSVSKAKAL [Peptide 89.0169] | > 20 | > 20 | > 20 | 4.73 | 1.62 | 0.099 | 15.5 | 0.398 | > 20 | > 20 | 
3 | CC(C)[C@H](NC(=O)[C@H](CO)NC(=O)[C@@H](NC(=O)[C@@H](N)[C@@H](C)O)C(C)C)C(=O)NCC(=O)N[C@H](C(=O)N[C@@H](C)C(=O)N[C@@H](CCCCN)C(=O)N[C@H](C(=O)N[C@@H](Cc1ccc(O)cc1)C(=O)NCC(=O)N[C@@H](CCC(N)=O)C(=O)N[C@H](C(=O)N[C@@H](CO)C(=O)N[C@@H](C)C(=O)O)[C@@H](C)O)[C@@H](C)O)[C@@H](C)O [Peptide 89.0163] | > 20 | > 20 | > 20 | > 20 | > 20 | > 20 | 2.33 |  | 0.229 | 8.71 | > 20
4 | IAYYYAQLADSNSNA [Peptide 89.0072] | > 20 | 7.81 | > 20 |  | 3.09 | 0.382 | 4.87 | 0.753 | 2.39 | 0.097 | > 20
5 | SRVIVCPTSIPSDQI [Peptide 90.0027] | > 20 |  | > 20 | > 20 | > 20 | > 20 | 6.14 | 1.91 | > 20 | > 20 | 2
6 | LNTVKIPPTVQISTG [Peptide 90.0028] | > 20 | > 20 | > 20 | > 20 | 6.92 | 8.74 | > 20 | > 20 | > 20 |  | 0.778
7 | CC[C@H](C)[C@H](NC(=O)[C@H](C)NC(=O)[C@H](CCCCN)NC(=O)[C@@H](N)Cc1c[nH]cn1)C(=O)N[C@@H](CCC(=O)O)C(=O)N[C@@H](CC(C)C)C(=O)N[C@@H](CCC(N)=O)C(=O)N[C@@H](CCSC)C(=O)N[C@@H](C)C(=O)N[C@@H](CC(C)C)C(=O)N[C@@H](CCC(N)=O)C(=O)NCC(=O)N[C@@H](CC(C)C)C(=O)N[C@@H](C)C(=O)N[C@@H](CCC(N)=O)C(=O)O [Peptide 89.0160] | 16.8 | > 20 | > 20 | > 20 | > 20 | > 20 | > 20 | 0.35 | 3.47 | 1.28 | 
8 | LIQLKCPPILLTTNI [Peptide 89.0038] | > 20 |  | > 20 | 0.99 | > 20 | 0.015 | 3.95 | 3.8 | 0.158 | 6.8 | > 20
9 | GQVIVFPESVFSSDE [Peptide 89.0173] | > 20 | 2.12 | > 20 | > 20 | > 20 |  | > 20 |  | > 20 | > 20 | > 20
10 | SWGMVVLLLVRYKCG [Peptide 89.0005] | 2.11 | > 20 | > 20 |  | 0.777 |  | 0.401 | 4.67 | 4.2 | 4.15 | 
11 | CWTYFDNYMRNALDG [Peptide 89.0090] | > 20 | 3.69 |  | 2.91 | > 20 |  | 4.88 | 3.59 | 2.04 |  | > 20
12 | QEQMLIQPPKIRSPA [Peptide 89.0124] |  | > 20 |  | 7.22 |  | > 20 | 8.05 | 0.991 | 1.64 | > 20 | > 20
13 | TLAVSKNKALQAIEL [Peptide 89.0150] | > 20 | > 20 | > 20 | > 20 | 5.22 |  | 1.64 | > 20 | 0.036 | > 20 | 
14 | ILLYGAANTGKSLFG [Peptide 89.0018] | 2.76 | 1.75 | 1.58 | 6.13 | > 20 | 0.23 | > 20 | 0.15 | 5.06 |  | 2.69
15 | ITHIGHQVVPPMAVS [Peptide 90.0010] | > 20 | 12.2 | > 20 | 4.99 | > 20 | 0.05 | 17.1 | 0.235 | 1.22 | 10.1 | 
16 | HQVVPPMAVSKAKAC [Peptide 90.0012] | 7.01 |  | 5.79 | 0.434 |  | 0.68 | > 20 | 2.34 | 0.645 | > 20 | 0.908
17 | ETHMVIEPPKLRSAT [Peptide 89.0103] | 3.26 | 12.2 | 2.87 | > 20 | > 20 |  | 3.54 | 0.778 | 3.91 |  | 1.46
18 | RDSVDSAPILTAFNS [Peptide 89.0156] | 7.05 | > 20 | > 20 | 0.335 |  | 7.45 | > 20 | 0.02 | 1.31 | 4.84 | 0.025
19 | LIRMECALLYTAKQM [Peptide 89.0179] | > 20 | > 20 | > 20 | 7.47 | > 20 | 0.998 | > 20 |  | > 20 | > 20 | > 20
20 | HQVVPSLVASKTKAF [Peptide 90.0023] | > 20 | > 20 | > 20 | 2.73 | > 20 | > 20 | > 20 | > 20 | > 20 | > 20 | 
21 | ESDMAFQYAQLADCN [Peptide 89.0085] | 20 | 5.92 | 7.69 | 3.25 |  | 0.011 | 19.7 | 0.233 | 0.048 | 7.42 | 0.224
22 | HALFTAQEAKQHRDA [Peptide 89.0001] | > 20 |  | 7.16 | > 20 | > 20 |  | 4.75 | 0.205 | > 20 | > 20 | > 20
23 | TPEWIEQQTVLQHSF [Peptide 89.0104] | > 20 | 14.1 | 5.46 | > 20 | > 20 | 0.949 | 2.88 |  | > 20 | 13 | > 20
24 | ELQMALETLSKSQYS [Peptide 89.0183] |  |  | 10.6 | 3.14 | 0.204 | 0.08 | 3.29 | 0.434 | > 20 |  | 4.3
25 | DWCIIGMGVTPSVAE [Peptide 89.0096] | > 20 | > 20 | > 20 | 2.64 | > 20 | > 20 | > 20 |  | 0.19 | 8.31 | 4.34
